Measured values taken from PubChem BioAssay (NCI).
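The concentration for 50% growth inhibition is given as GI50. TGI: total growth inhibition.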

Columns and labels:
Experiment in all cases: NCI-60 cell line screen, 384-well format
[1] = test system: 786-0 renal
[2] = test system: A498 renal
[3] = test system: A549 NSCLC
[4] = test system: ACHN renal
[5] = test system: BT-549 breast
[6] = test system: CAKI-1 renal
[7] = test system: CCRF-CEM leukemia
[8] = test system: COLO 205 colon
[9] = test system: DU-145 prostate
[10] = test system: EKVX NSCLC
[11] = test system: HCC-2998 colon
[12] = test system: HCT-15 colon
[13] = test system: HL-60(TB) leukemia
[14] = test system: HOP-62 NSCLC
[15] = test system: HOP-92 NSCLC
[16] = test system: HS 578T breast
[17] = test system: HT29 colon
[18] = test system: IGROV1 ovarian
[19] = test system: K-562 leukemia
[20] = test system: KM12 colon
[21] = test system: LOX IMVI melanoma
[22] = test system: M14 melanoma
[23] = test system: MALME-3M melanoma
[24] = test system: MCF7 breast
[25] = test system: MDA-MB-231 breast
[26] = test system: MDA-MB-435 melanoma
[27] = test system: MDA-MB-468 breast
[28] = test system: MOLT-4 leukemia
[29] = test system: NCI-H226 lung
[30] = test system: NCI-H23 lung
[31] = test system: NCI-H322M lung
[32] = test system: NCI-H460 NSCLC
[33] = test system: NCI-H522 lung
[34] = test system: NCI/ADR-RES ovarian
[35] = test system: OVCAR-3 ovarian
[36] = test system: OVCAR-4 ovarian
[37] = test system: OVCAR-5 ovarian
[38] = test system: OVCAR-8 ovarian
[39] = test system: PC-3 prostate
[40] = test system: RPMI-8226 leukemia
[41] = test system: RXF 393 renal
[42] = test system: SF-268 CNS
[43] = test system: SF-295 CNS
[44] = test system: SF-539 CNS
[45] = test system: SK-MEL-28 melanoma
[46] = test system: SK-MEL-5 melanoma
[47] = test system: SK-OV-3 ovarian
[48] = test system: SN12C renal
[49] = test system: SNB-19 CNS
[50] = test system: SNB-75 CNS
[51] = test system: SR leukemia
[52] = test system: SW-620 colon
[53] = test system: T-47D breast
[54] = test system: TK-10 renal
[55] = test system: U251 glioblastoma
[56] = test system: UACC-257 melanoma
[57] = test system: UACC-62 melanoma
[58] = test system: UO-31 renal

Cn1cc(-c2cnc3ccc4ccc(CS(=O)(=O)NCc5ccccn5)cc4c(=O)c3c2)cn1
GI50 [1]: 37.6 µM | TGI [1]: > 100 µM | GI50 [2]: 23.1 µM | TGI [2]: > 100 µM | GI50 [3]: 40.4 µM | TGI [3]: > 100 µM | GI50 [4]: 24.7 µM | TGI [4]: 98.4 µM | GI50 [5]: 14.9 µM | TGI [5]: 30.8 µM | GI50 [6]: 32.7 µM | TGI [6]: > 100 µM | GI50 [7]: 7.51 µM | TGI [7]: 19.8 µM | GI50 [8]: 34.1 µM | TGI [8]: > 100 µM | GI50 [9]: 20 µM | TGI [9]: 51.2 µM | GI50 [10]: 17.9 µM | TGI [10]: 35.7 µM | GI50 [11]: 15 µM | TGI [11]: 28.7 µM | GI50 [12]: 4.28 µM | TGI [12]: 14.7 µM | GI50 [13]: 13.2 µM | TGI [13]: 26 µM | GI50 [14]: 13 µM | TGI [14]: 27.8 µM | GI50 [15]: 14.7 µM | TGI [15]: 34.1 µM | GI50 [16]: 14.4 µM | TGI [16]: 33.3 µM | GI50 [17]: 15.4 µM | TGI [17]: 32.7 µM | GI50 [18]: 16.7 µM | TGI [18]: 33 µM | GI50 [19]: 5.42 µM | TGI [19]: 17.8 µM | GI50 [20]: 11.4 µM | TGI [20]: 26.6 µM | GI50 [21]: 16.3 µM | TGI [21]: 30.2 µM | GI50 [22]: 12.9 µM | TGI [22]: 26.1 µM | GI50 [23]: 12.3 µM | TGI [23]: 25.4 µM | GI50 [24]: 10 µM | TGI [24]: 26.9 µM | GI50 [25]: 15.2 µM | TGI [25]: 30.4 µM | GI50 [26]: 3.77 µM | TGI [26]: 12.2 µM | GI50 [27]: 2.79 µM | TGI [27]: 7.05 µM | GI50 [28]: 3.23 µM | TGI [28]: 10.6 µM | GI50 [29]: 13.7 µM | TGI [29]: 30.5 µM | GI50 [30]: 11.6 µM | TGI [30]: 24.5 µM | GI50 [31]: 21.3 µM | TGI [31]: 64.6 µM | GI50 [32]: 15.1 µM | TGI [32]: 28.9 µM | GI50 [33]: 13.1 µM | TGI [33]: 25.9 µM | GI50 [34]: 16.2 µM | TGI [34]: 37.4 µM | GI50 [35]: 14 µM | TGI [35]: 28.1 µM | GI50 [36]: 14.9 µM | TGI [36]: 29.6 µM | GI50 [37]: 25.4 µM | TGI [37]: 49.3 µM | GI50 [38]: 16.2 µM | TGI [38]: 36.5 µM | GI50 [39]: 20.5 µM | TGI [39]: 42.5 µM | GI50 [40]: 5.18 µM | TGI [40]: 17.5 µM | GI50 [41]: 13.5 µM | TGI [41]: 26.8 µM | GI50 [42]: 18.4 µM | TGI [42]: 38.6 µM | GI50 [43]: 13.3 µM | TGI [43]: 33.8 µM | GI50 [44]: 15.3 µM | TGI [44]: 28.9 µM | GI50 [45]: 17 µM | TGI [45]: 32 µM | GI50 [46]: 8.26 µM | TGI [46]: 20.8 µM | GI50 [47]: 13.4 µM | TGI [47]: 31.3 µM | GI50 [48]: 19.9 µM | TGI [48]: 46.4 µM | GI50 [49]: 20.8 µM | TGI [49]: 53.1 µM | GI50 [50]: 15.9 µM | TGI [50]: 30.2 µM | GI50 [51]: 1.91 µM | TGI [51]: 4.24 µM | GI50 [52]: 14 µM | TGI [52]: 28.8 µM | GI50 [53]: 15.5 µM | TGI [53]: 30.5 µM | GI50 [54]: 20.8 µM | TGI [54]: 51.5 µM | GI50 [55]: 21.2 µM | TGI [55]: 65.3 µM | GI50 [56]: 18.3 µM | TGI [56]: 32.3 µM | GI50 [57]: 12 µM | TGI [57]: 24.5 µM | GI50 [58]: 35.9 µM | TGI [58]: > 100 µM
